Measured values: patent US8269009B2, “Methods and compositions for treating liquid tumors” (Elan Pharmaceuticals, Inc., priority 2007, dated 2012)

Legend:
[1] = Maximum tolerated dose of topotecan in the MOLT-4 model (Piedmont Research Center); settings: SCID, mouse, in vivo; MOLT-4 cell line model
Method: The dose level of 12 mg/kg topotecan was determined as maximum tolerated dose in the MOLT-4 cell line by Piedmont Research Center. Since maximal biologic effect can occur at a dose much lower than the MTD, we had included ½ the maximum tolerated (½MTD=6 mg/kg) (see Marx, G M et al., Journal of Clin One 2002; 20(6): 1446-1448).

[2] = test system: neovascularization of the cornea; test: Mouse corneal micropocket angiogenesis assay (VEGF pellet); format: in vivo, C57BL/6 mice
Method: Fifty-five Charles River (Wilmington, N.C.) female C57BL/6 mice were available for the study. […] On Day 1 (Oct. 9, 2007) the Hydron pellets were implanted into corneal pocket cut in one eye of mice; pellets containing 200 ng/animal VEGF were implanted in Groups 2-6. Mice were anesthetized with 90 mg/kg pentobarbital, IP, immediately prior to implantation surgery; pellet implantation was performed according to Piedmont SOP which the test facility described as an adaptation of the method described by Kenyon et al (B M Kenyon, E E Voest, C C Chen, E Flynn, J Folkman, R J D'Amato, 1996, A model of angiogenesis in the mouse cornea, Investigative Opthalmology & Visual Science, Vol 37 No 8, 1625-1632). […]
Body weights were taken every day throughout the study. […] The vessel length of the longest blood vessel to have grown upward from the limbus was measured (VL) as was the circumference of vessel growth or clock hour (CH). The area of neovascularization was calculated using the formula: Area (mm^2)=πVL×CH×0.2. In addition to reporting the vessel length, clock hour, and calculated area of neovascularization, the percent neovascularization compared to the VEGF-treated negative control (Group 2) was reported. statistical significance by Kruskal-Wallis-Dunn with comparison to Group 2 and mean body weight nadir (the lowest group mean body weight, as a percent change from Day 1. […]

Compound	MTD [1]	Percent neovascularization ([2]; 10 mg/kg IP, qd x 6 from Day 2)	Changes in body weight vs untreated group ([2]; mouse, in vivo)
CC[C@@]1(O)C(=O)OCc2c1cc1n(c2=O)Cc2cc3c(CN(C)C)c(O)ccc3nc2-1 [topotecan]	12 mg/kg	–	–
bevacizumab: bevacizumab (Avastin, Genentech), an anti-VEGF monoclonal antibody	–	0%	no significant changes
